Legend:
[1] = test system: Rattus norvegicus; assay: Total electrolytic excretion of potassium in urine of rats after peroral administration of 0 uM/Kg of drug; assay type: ADME, organism-based; settings: in vivo, po
[2] = test system: Rattus norvegicus; assay: Tested for the diuretic activity by measuring the urinary volume after peroral administering 0 uM/Kg of drug in rats; assay type: ADME, organism-based, Urine; settings: in vivo, po
[3] = test system: Rattus norvegicus; assay: Total electrolytic excretion of sodium in urine of rats after peroral administration of 0 uM/Kg of drug; assay type: ADME, organism-based; settings: in vivo, po
[4] = test system: Rattus norvegicus; assay: Tested for the diuretic activity by measuring the urinary volume after peroral administering 23.9 uM/Kg of drug in rats; assay type: ADME, organism-based, Urine; settings: in vivo, po
[5] = test system: Rattus norvegicus; assay: Total electrolytic excretion of chlorine in urine of rats after peroral administration of 239 uM/Kg of drug; assay type: ADME, organism-based; settings: in vivo, po
[6] = test system: Rattus norvegicus; assay: Ratio of Total electrolytic excretion of sodium and potassium in urine of rats after intravenous administration of 11.9 uM/Kg of drug; assay type: ADME, organism-based; settings: in vivo
[7] = test system: Rattus norvegicus; assay: Total electrolytic excretion of potassium in urine of rats after peroral administration of 23.9 uM/Kg of drug; assay type: ADME, organism-based; settings: in vivo, po
[8] = test system: Rattus norvegicus; assay: Total electrolytic excretion of chlorine in urine of rats after peroral administration of 71.6 uM/Kg of drug; assay type: ADME, organism-based; settings: in vivo, po
[9] = test system: Rattus norvegicus; assay: Total electrolytic excretion of sodium in urine of rats after peroral administration of 239 uM/Kg of drug; assay type: ADME, organism-based; settings: in vivo, po
[10] = test system: Rattus norvegicus; assay: Total electrolytic excretion of sodium in urine of rats after peroral administration of 23.9 uM/Kg of drug; assay type: ADME, organism-based; settings: in vivo, po
[11] = test system: Rattus norvegicus; assay: Ratio of Total electrolytic excretion of sodium and potassium in urine of rats after peroral administration of 239 uM/Kg of drug; assay type: ADME, organism-based; settings: in vivo, po
[12] = test system: Canis familiaris; assay: Total electrolytic excretion of sodium in urine of dogs after intravenous administration of 11.9 uM/Kg of drug; assay type: ADME, organism-based, Canis lupus familiaris; settings: dog, in vivo
[13] = test system: Rattus norvegicus; assay: Total electrolytic excretion of potassium in urine of rats after peroral administration of 71.6 uM/Kg of drug; assay type: ADME, organism-based; settings: in vivo, po
[14] = test system: Rattus norvegicus; assay: Ratio of Total electrolytic excretion of sodium and potassium in urine of rats after peroral administration of 23.9 uM/Kg of drug; assay type: ADME, organism-based; settings: in vivo, po
[15] = test system: Rattus norvegicus; assay: Total electrolytic excretion of potassium in urine of rats after peroral administration of 239 uM/Kg of drug; assay type: ADME, organism-based; settings: in vivo, po
[16] = test system: Rattus norvegicus; assay: Ratio of Total electrolytic excretion of sodium and potassium in urine of rats after peroral administration of 71.6 uM/Kg of drug; assay type: ADME, organism-based; settings: in vivo, po
[17] = test system: Rattus norvegicus; assay: Tested for the diuretic activity by measuring the urinary volume after peroral administering 239 uM/Kg of drug in rats; assay type: ADME, organism-based, Urine; settings: in vivo, po
[18] = test system: Canis familiaris; assay: Total electrolytic excretion of chlorine in urine of dogs after intravenous administration of 11.9 uM/Kg of drug; assay type: ADME, organism-based, Canis lupus familiaris; settings: dog, in vivo
[19] = test system: Rattus norvegicus; assay: Tested for the diuretic activity by measuring the urinary volume after peroral administering 71.6 uM/Kg of drug in rats; assay type: ADME, organism-based, Urine; settings: in vivo, po
[20] = test system: Canis familiaris; assay: Total electrolytic excretion of potassium in urine of dogs after intravenous administration of 11.9 uM/Kg of drug; assay type: ADME, organism-based, Canis lupus familiaris; settings: dog, in vivo
[21] = test system: Rattus norvegicus; assay: Total electrolytic excretion of chlorine in urine of rats after peroral administration of 23.9 uM/Kg of drug; assay type: ADME, organism-based; settings: in vivo, po
[22] = test system: Canis familiaris; assay: Tested for the diuretic activity by measuring the urinary volume after intravenous administering 11.9 uM/Kg of drug in dogs; assay type: ADME, organism-based, Canis lupus familiaris, Urine; settings: dog, in vivo
[23] = test system: Rattus norvegicus; assay: Total electrolytic excretion of sodium in urine of rats after peroral administration of 71.6 uM/Kg of drug; assay type: ADME, organism-based; settings: in vivo, po
[24] = test system: Rattus norvegicus; assay: Total electrolytic excretion of potassium in urine of rats after peroral administration of 31.6 uM/Kg of drug; assay type: ADME, organism-based; settings: in vivo, po
[25] = test system: Rattus norvegicus; assay: Total electrolytic excretion of sodium in urine of rats after peroral administration of 94.9 uM/Kg of drug; assay type: ADME, organism-based; settings: in vivo, po
[26] = test system: Rattus norvegicus; assay: Tested for the diuretic activity by measuring the urinary volume after peroral administering 31.6 uM/Kg of drug in rats; assay type: ADME, organism-based, Urine; settings: in vivo, po
[27] = test system: Rattus norvegicus; assay: Total electrolytic excretion of sodium in urine of rats after peroral administration of 31.6 uM/Kg of drug; assay type: ADME, organism-based; settings: in vivo, po
[28] = test system: Rattus norvegicus; assay: Tested for the diuretic activity by measuring the urinary volume after peroral administering 94.9 uM/Kg of drug in rats; assay type: ADME, organism-based, Urine; settings: in vivo, po
[29] = test system: Rattus norvegicus; assay: Total electrolytic excretion of chlorine in urine of rats after peroral administration of 316 uM/Kg of drug; assay type: ADME, organism-based; settings: in vivo, po
[30] = test system: Rattus norvegicus; assay: Total electrolytic excretion of sodium in urine of rats after peroral administration of 316 uM/Kg of drug; assay type: ADME, organism-based; settings: in vivo, po
[31] = test system: Rattus norvegicus; assay: Ratio of Total electrolytic excretion of sodium and potassium in urine of rats after peroral administration of 94.9 uM/Kg of drug; assay type: ADME, organism-based; settings: in vivo, po
[32] = test system: Rattus norvegicus; assay: Ratio of Total electrolytic excretion of sodium and potassium in urine of rats after peroral administration of 31.6 uM/Kg of drug; assay type: ADME, organism-based; settings: in vivo, po
[33] = test system: Rattus norvegicus; assay: Ratio of Total electrolytic excretion of sodium and potassium in urine of rats after peroral administration of 316 uM/Kg of drug; assay type: ADME, organism-based; settings: in vivo, po
[34] = test system: Rattus norvegicus; assay: Total electrolytic excretion of potassium in urine of rats after peroral administration of 94.9 uM/Kg of drug; assay type: ADME, organism-based; settings: in vivo, po
[35] = test system: Rattus norvegicus; assay: Total electrolytic excretion of potassium in urine of rats after peroral administration of 316 uM/Kg of drug; assay type: ADME, organism-based; settings: in vivo, po
[36] = test system: Rattus norvegicus; assay: Total electrolytic excretion of chlorine in urine of rats after peroral administration of 31.6 uM/Kg of drug; assay type: ADME, organism-based; settings: in vivo, po
[37] = test system: Rattus norvegicus; assay: Total electrolytic excretion of chlorine in urine of rats after peroral administration of 94.9 uM/Kg of drug; assay type: ADME, organism-based; settings: in vivo, po
[38] = test system: Rattus norvegicus; assay: Tested for the diuretic activity by measuring the urinary volume after peroral administering 316 uM/Kg of drug in rats; assay type: ADME, organism-based, Urine; settings: in vivo, po

## NS(=O)(=O)c1cc(C(=O)O)c(NCc2ccco2)cc1Cl [FUROSEMIDE]
[1]
  Excretion K+: 0.24 m equiv
[2]
  V: 4.4 mL
[3]
  Excretion Na+: 0.65 m equiv

## Clc1ccc(N/C(=N/C2CCCCC2)N2CCOCC2)cc1Cl
[4]
  V: 7.4 mL
[5]
  Excretion Cl-: 1.69 m equiv
[6]
  Ratio: 7.4 [Na+]/[K+]
[7]
  Excretion K+: 0.27 m equiv
[8]
  Excretion Cl-: 1.45 m equiv
[9]
  Excretion Na+: 1.92 m equiv
[10]
  Excretion Na+: 1.1 m equiv
[11]
  Ratio: 5.8 [Na+]/[K+]
[12]
  Excretion Na+: 8.5 m equiv
[13]
  Excretion K+: 0.32 m equiv
[14]
  Ratio: 4.1 [Na+]/[K+]
[15]
  Excretion K+: 0.33 m equiv
[16]
  Ratio: 4.4 [Na+]/[K+]
[17]
  V: 13.2 mL
[18]
  Excretion Cl-: 5.7 m equiv
[19]
  V: 10.6 mL
[20]
  Excretion K+: 1.1 m equiv
[21]
  Excretion Cl-: 1.17 m equiv
[22]
  V: 57 mL
[23]
  Excretion Na+: 1.41 m equiv

## C1CCC(N/C(=N/C2CCCC2)N2CCOCC2)CC1
[24]
  Excretion K+: 0.28 m equiv
[25]
  Excretion Na+: 0.84 m equiv
[26]
  V: 3.8 mL
[27]
  Excretion Na+: 0.62 m equiv
[28]
  V: 6.3 mL
[29]
  Excretion Cl-: 1.4 m equiv
[30]
  Excretion Na+: 1.32 m equiv
[31]
  Ratio: 3.2
[32]
  Ratio: 2.2
[33]
  Ratio: 4.1
[34]
  Excretion K+: 0.26 m equiv
[35]
  Excretion K+: 0.32 m equiv
[36]
  Excretion Cl-: 0.65 m equiv
[37]
  Excretion Cl-: 0.92 m equiv
[38]
  V: 8.9 mL

Reference: ChEMBL document CHEMBL1127385, “Synthesis and diuretic activity of alkyl- and arylguanidine analogs of N,N'-dicyclohexyl-4-morpholinecarboxamidine in rats and dogs” (J Med Chem, 1994)
